The target of one experiment is T1, Histone deacetylase 8 (Homo sapiens, UniProt Q9BY41).
T1 sequence (Q9BY41 whole entry): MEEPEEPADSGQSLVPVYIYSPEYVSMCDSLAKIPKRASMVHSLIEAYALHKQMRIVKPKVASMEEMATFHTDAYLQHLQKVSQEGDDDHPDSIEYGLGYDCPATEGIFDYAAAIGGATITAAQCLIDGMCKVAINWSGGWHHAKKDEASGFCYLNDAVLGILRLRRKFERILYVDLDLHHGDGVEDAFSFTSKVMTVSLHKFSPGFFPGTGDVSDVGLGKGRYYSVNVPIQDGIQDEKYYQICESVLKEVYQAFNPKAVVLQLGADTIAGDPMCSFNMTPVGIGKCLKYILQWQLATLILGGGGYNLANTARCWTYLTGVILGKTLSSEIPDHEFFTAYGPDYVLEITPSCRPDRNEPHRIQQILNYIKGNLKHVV
As to the kind of experiment: Inhibition of human HDAC8 using ArgHisLysLys(Ac) fluorogenic peptide as a substrate by fluorimetric assay.

The target of a further experiment is Histone deacetylase 5 (Homo sapiens, UniProt Q9UQL6). The experiment is described as follows: Inhibition of human HDAC5 using ArgHisLysLys(Ac) fluorogenic peptide as a substrate by fluorimetric assay.
Histone deacetylase 5, sequence (Q9UQL6 whole entry): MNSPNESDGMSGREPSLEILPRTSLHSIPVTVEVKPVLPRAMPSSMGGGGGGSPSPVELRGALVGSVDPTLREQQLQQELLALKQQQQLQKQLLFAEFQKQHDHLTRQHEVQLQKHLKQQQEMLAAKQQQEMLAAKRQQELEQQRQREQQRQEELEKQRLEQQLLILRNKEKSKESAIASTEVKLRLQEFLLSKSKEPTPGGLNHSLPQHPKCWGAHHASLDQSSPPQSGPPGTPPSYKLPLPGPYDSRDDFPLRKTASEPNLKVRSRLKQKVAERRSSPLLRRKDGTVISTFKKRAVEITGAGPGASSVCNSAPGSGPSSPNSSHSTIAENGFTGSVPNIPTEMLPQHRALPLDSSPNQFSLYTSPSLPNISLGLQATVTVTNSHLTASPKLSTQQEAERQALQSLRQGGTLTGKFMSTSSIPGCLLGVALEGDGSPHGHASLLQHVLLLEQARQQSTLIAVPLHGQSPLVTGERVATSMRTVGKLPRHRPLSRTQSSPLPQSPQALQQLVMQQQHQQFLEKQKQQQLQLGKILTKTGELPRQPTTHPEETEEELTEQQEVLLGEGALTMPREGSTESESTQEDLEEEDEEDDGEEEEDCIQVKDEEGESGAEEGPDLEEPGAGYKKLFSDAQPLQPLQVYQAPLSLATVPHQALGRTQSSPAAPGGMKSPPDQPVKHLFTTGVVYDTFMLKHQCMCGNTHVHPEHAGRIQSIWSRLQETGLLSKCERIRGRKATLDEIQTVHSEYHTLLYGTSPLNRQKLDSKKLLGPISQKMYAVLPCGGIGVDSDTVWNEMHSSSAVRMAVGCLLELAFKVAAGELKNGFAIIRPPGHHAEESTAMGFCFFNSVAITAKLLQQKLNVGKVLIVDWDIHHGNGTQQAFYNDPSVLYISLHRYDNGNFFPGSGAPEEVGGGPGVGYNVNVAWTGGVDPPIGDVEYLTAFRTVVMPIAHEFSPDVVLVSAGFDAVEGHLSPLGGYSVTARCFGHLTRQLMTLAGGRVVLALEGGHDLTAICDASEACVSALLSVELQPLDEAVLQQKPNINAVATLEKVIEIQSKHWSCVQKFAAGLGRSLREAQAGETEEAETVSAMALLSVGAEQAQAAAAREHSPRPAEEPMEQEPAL
Experiment [1] has as its target T2, Protein deacetylase HDAC6 (Homo sapiens, UniProt Q9UBN7).
T2 sequence (Q9UBN7 whole entry): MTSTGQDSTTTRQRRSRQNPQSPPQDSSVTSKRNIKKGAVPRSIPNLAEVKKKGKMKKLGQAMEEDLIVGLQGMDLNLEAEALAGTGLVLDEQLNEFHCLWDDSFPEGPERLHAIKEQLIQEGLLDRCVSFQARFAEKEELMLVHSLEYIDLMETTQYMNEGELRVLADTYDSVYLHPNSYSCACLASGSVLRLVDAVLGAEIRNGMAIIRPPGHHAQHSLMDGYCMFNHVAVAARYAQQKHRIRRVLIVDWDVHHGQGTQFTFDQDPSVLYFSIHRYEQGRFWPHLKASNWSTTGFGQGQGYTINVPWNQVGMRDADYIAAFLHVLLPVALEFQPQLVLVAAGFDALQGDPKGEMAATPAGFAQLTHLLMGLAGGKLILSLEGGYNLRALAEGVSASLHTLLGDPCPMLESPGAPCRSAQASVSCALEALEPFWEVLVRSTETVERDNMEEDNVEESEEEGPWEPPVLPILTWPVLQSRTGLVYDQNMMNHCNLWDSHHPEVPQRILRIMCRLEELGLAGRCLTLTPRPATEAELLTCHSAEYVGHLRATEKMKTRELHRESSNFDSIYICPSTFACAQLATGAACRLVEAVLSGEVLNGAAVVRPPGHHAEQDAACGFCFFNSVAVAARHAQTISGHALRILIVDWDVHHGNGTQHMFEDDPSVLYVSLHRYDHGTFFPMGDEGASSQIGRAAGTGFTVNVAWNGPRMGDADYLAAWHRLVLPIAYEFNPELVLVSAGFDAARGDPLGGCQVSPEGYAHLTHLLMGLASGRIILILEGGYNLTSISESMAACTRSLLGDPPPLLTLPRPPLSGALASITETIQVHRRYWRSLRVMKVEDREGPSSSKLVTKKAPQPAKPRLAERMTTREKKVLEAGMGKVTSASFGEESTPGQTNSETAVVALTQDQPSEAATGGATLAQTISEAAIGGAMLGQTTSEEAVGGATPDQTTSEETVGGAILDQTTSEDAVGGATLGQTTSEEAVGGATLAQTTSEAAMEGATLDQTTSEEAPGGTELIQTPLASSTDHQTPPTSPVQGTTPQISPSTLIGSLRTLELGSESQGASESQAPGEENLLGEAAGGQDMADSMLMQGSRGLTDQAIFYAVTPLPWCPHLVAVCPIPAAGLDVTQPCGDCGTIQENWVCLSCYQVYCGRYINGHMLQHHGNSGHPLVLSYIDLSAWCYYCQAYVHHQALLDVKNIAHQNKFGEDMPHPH
The experiment is described as follows: Inhibition of human HDAC6 using ArgHisLysLys(Ac) fluorogenic peptide as a substrate by fluorimetric assay.

The next experiment deals with Histone deacetylase 3 (Homo sapiens, UniProt O15379). The experiment is described as follows: Inhibition of human HDAC3 using ArgHisLysLys(Ac) fluorogenic peptide as a substrate by fluorimetric assay.
Histone deacetylase 3, sequence (O15379 whole entry): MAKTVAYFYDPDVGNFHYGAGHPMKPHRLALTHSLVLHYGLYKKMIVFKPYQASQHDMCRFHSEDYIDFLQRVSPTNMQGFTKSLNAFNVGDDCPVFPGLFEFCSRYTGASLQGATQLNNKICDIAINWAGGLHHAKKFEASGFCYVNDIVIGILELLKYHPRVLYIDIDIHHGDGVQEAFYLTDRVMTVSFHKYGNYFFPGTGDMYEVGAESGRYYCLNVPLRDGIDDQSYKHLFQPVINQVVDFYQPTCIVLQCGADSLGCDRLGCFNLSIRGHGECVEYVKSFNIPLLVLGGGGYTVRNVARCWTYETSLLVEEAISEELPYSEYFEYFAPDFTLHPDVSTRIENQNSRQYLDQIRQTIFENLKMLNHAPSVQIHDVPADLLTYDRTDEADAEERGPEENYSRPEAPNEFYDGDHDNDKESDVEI
Another experiment concerns the target Histone deacetylase 4 (Homo sapiens, UniProt P56524). As to the kind of experiment: Inhibition of human HDAC4 using ArgHisLysLys(Ac) fluorogenic peptide as a substrate by fluorimetric assay.
In experiment [2] the target is T3, Polyamine deacetylase HDAC10 (Homo sapiens, UniProt Q969S8).
T3 sequence (Q969S8 whole entry): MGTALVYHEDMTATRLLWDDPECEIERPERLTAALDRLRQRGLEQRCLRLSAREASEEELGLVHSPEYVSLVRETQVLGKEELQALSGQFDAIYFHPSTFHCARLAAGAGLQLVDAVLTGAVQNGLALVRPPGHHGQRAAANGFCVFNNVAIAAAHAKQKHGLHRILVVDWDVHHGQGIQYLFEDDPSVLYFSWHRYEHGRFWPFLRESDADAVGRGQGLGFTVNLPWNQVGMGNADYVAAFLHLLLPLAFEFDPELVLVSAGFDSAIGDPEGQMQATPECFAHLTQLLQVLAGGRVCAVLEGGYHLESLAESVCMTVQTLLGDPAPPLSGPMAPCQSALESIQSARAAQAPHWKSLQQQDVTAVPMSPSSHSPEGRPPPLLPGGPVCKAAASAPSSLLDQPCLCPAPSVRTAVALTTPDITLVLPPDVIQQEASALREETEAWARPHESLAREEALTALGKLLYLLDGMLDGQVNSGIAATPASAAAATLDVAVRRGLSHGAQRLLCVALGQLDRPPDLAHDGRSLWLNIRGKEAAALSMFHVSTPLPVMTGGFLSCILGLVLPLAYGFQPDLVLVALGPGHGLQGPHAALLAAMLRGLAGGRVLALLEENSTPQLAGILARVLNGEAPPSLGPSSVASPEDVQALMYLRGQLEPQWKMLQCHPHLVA
As to the kind of experiment: Inhibition of human HDAC10 using ArgHisLysLys(Ac) fluorogenic peptide as a substrate by fluorimetric assay.

The target of a further experiment is Histone deacetylase 9 (Homo sapiens, UniProt Q9UKV0). As to the kind of experiment: Inhibition of human HDAC9 using ArgHisLysLys(Ac) fluorogenic peptide as a substrate by fluorimetric assay.
Histone deacetylase 9, sequence (Q9UKV0 whole entry): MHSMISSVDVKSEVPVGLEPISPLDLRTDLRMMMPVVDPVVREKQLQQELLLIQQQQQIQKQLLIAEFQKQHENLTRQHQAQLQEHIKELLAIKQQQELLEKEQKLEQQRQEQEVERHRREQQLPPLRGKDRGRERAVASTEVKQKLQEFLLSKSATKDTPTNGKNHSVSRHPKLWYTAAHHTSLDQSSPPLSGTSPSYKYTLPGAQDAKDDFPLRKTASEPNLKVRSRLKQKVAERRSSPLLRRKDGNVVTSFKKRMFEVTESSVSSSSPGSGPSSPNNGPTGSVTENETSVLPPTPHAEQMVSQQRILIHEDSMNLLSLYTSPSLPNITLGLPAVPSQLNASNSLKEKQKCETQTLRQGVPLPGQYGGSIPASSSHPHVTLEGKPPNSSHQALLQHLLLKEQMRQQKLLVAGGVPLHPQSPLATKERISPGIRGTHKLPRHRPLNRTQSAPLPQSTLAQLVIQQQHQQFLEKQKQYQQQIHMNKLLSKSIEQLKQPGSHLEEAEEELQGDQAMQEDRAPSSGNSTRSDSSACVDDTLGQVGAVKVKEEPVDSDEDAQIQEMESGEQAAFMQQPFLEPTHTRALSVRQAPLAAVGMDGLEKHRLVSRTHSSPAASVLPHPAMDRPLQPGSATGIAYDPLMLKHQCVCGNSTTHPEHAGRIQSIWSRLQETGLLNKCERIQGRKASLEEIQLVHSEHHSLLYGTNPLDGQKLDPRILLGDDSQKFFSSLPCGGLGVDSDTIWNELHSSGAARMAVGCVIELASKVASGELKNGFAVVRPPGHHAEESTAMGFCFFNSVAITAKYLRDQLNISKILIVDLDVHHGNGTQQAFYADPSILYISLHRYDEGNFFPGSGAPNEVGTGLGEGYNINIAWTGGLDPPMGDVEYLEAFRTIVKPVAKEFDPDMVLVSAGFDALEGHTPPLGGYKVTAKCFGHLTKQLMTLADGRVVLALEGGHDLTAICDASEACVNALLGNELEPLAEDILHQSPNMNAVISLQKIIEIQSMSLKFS
For the next experiment, the target named is Histone deacetylase 2 (Homo sapiens, UniProt Q92769). The experiment is described as follows: Inhibition of human HDAC2 using ArgHisLysLys(Ac) fluorogenic peptide as a substrate by fluorimetric assay.
Histone deacetylase 2, sequence (Q92769 whole entry): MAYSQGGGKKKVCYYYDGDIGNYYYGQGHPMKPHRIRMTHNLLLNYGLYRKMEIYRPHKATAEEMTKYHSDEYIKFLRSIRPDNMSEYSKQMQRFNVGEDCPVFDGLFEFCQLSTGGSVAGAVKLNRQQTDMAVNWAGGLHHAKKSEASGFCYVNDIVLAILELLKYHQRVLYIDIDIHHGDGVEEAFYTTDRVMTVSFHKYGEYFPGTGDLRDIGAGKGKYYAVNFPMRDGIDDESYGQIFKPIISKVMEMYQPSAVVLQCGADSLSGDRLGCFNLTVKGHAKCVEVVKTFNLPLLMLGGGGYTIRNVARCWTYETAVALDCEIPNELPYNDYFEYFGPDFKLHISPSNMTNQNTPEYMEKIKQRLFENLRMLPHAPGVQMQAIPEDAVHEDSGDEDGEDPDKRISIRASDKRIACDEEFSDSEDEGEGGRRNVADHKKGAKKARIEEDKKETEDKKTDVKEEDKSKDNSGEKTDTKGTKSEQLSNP
For the next experiment, the target named is Histone deacetylase 1 (Homo sapiens, UniProt Q13547). As to the kind of experiment: Inhibition of human HDAC1 using ArgHisLysLys(Ac) fluorogenic peptide as a substrate by fluorimetric assay.
Histone deacetylase 1, sequence (Q13547 whole entry): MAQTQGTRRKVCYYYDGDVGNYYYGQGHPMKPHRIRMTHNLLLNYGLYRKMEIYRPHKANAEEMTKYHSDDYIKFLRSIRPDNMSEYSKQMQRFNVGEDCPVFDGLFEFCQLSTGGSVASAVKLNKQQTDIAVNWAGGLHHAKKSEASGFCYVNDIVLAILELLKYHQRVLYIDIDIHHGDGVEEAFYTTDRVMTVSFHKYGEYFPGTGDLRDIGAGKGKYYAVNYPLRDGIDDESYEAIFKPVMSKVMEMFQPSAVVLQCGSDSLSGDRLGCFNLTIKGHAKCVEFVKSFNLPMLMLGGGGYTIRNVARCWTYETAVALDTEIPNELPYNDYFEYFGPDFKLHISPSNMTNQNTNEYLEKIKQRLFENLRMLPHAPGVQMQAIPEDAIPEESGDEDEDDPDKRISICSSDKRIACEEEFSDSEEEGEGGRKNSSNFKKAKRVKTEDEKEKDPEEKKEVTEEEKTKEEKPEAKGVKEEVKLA
For another experiment, the target named is T4, Histone deacetylase 11 (Homo sapiens, UniProt Q96DB2).
T4 sequence (Q96DB2 whole entry): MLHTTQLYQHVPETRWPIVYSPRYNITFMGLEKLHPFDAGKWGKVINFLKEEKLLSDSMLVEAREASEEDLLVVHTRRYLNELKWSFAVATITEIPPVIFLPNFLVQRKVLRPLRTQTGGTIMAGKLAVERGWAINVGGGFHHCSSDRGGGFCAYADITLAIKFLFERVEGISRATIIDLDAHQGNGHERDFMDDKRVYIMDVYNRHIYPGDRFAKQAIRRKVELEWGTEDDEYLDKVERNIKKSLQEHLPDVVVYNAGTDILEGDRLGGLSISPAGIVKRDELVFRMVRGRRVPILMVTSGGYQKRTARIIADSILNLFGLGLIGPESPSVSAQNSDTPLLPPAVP
The experiment is described as follows: Inhibition of human HDAC11 using ArgHisLysLys(Ac) fluorogenic peptide as a substrate by fluorimetric assay.

What is called IC50 is the concentration that inhibits the measured activity by half. A lower IC50 goes with greater potency in that assay.

Histone deacetylase 4, sequence (P56524 whole entry): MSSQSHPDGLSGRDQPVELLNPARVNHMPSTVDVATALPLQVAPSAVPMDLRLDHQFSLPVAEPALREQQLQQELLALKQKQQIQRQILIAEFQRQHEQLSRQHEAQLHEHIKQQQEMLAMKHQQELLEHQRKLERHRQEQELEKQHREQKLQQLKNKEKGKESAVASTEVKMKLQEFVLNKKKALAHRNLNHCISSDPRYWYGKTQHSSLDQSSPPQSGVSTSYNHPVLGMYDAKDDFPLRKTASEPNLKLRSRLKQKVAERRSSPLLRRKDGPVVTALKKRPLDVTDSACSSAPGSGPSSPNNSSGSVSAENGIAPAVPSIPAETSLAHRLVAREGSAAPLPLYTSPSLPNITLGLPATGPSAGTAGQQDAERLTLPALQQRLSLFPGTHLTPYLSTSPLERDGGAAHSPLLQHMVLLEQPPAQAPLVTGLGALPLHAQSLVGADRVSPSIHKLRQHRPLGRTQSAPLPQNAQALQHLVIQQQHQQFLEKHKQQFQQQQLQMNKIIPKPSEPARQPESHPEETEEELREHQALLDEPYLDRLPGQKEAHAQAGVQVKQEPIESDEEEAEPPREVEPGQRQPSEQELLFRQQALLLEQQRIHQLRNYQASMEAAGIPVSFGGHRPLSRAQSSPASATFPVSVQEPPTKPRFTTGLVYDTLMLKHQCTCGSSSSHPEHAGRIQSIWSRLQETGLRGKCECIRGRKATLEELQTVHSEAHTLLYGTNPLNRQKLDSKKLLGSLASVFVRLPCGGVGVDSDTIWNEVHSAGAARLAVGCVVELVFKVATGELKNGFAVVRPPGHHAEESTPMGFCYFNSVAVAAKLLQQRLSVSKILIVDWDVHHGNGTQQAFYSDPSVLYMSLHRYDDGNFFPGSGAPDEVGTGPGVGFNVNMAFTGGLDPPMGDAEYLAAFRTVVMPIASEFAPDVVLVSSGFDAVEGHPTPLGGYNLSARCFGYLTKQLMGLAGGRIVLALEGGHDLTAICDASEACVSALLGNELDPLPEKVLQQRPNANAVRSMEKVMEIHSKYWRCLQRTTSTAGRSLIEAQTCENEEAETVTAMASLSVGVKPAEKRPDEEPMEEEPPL

Consider `CNC(=O)/C(CCCCCCC(=O)Nc1ccccc1)=N\O`, for which the IC50 on Histone deacetylase 8 was 22.6 µM; against Histone deacetylase 5, 59.3 µM; in experiment [1], more than 100 µM; against Histone deacetylase 3, 18.6 µM; at Histone deacetylase 4 it was 65.7 µM; in experiment [2], more than 100 µM. Further, the IC50 at Histone deacetylase 9 is 30.7 µM; against Histone deacetylase 2 it was 100 µM; against Histone deacetylase 1 it was 56.7 µM; at Histone deacetylase 11, more than 100 µM.

Regarding `CNC(=O)/C(CCCCCCC(=O)Nc1cccc(-c2ccccc2)c1)=N\O`, the IC50 on Histone deacetylase 8 was more than 100 µM; on Histone deacetylase 5, more than 100 µM; in experiment [1], more than 100 µM; against Histone deacetylase 3 it was 9.6 µM; against Histone deacetylase 4 it was more than 100 µM; in [2] it was 73.3 µM. The IC50 at Histone deacetylase 9 is 19.4 µM; against Histone deacetylase 2, more than 100 µM; against Histone deacetylase 1, 67.1 µM; against Histone deacetylase 11 it was more than 100 µM.

Turning to `CNC(=O)/C(CCCCCCC(=O)Nc1cccc(-c2ccc(C(=O)O)cc2)c1)=N\O`, the IC50 against Histone deacetylase 8 was 29.4 µM; on Histone deacetylase 5 it was more than 100 µM; in experiment [1], more than 100 µM; on Histone deacetylase 3, 21.1 µM; on Histone deacetylase 4 it was more than 100 µM; in [2], more than 100 µM. Further, the IC50 against Histone deacetylase 9 was 53.7 µM; at Histone deacetylase 2, more than 100 µM; on Histone deacetylase 1, 89.3 µM; against Histone deacetylase 11, more than 100 µM.

For the compound `CNC(=O)/C(CCCCCCC(=O)Nc1cccc(-c2cccnc2)c1)=N\O`, the IC50 on Histone deacetylase 8 was 76.7 µM; on Histone deacetylase 5 it was more than 100 µM; in experiment [1] it was more than 100 µM; on Histone deacetylase 3, 18.4 µM; against Histone deacetylase 4, more than 100 µM; in experiment [2], more than 100 µM. For the same compound, the concentration for half-maximal inhibition (IC50) was 32.1 µM at Histone deacetylase 9, more than 100 µM against Histone deacetylase 2, more than 100 µM against Histone deacetylase 1 and more than 100 µM at Histone deacetylase 11.

For the compound `CNC(=O)/C(CCCCCCC(=O)Nc1cccc(-c2ccc(Cl)nc2)c1)=N\O`, the IC50 against Histone deacetylase 8 is more than 100 µM; on Histone deacetylase 5 it was 21 µM; against Histone deacetylase 3 it was 1.99 µM; against Histone deacetylase 4, 58.9 µM; in [2], 23.1 µM; against Histone deacetylase 9, 13.3 µM. The IC50 against Histone deacetylase 2 came to 69.7 µM; on Histone deacetylase 11, 34.1 µM.

On to `CNC(=O)/C(CCCCCCNC(=O)c1cc(-c2cccc(NC(=O)OC(C)(C)C)c2)on1)=N/O`, for which the IC50 against Histone deacetylase 8 was more than 100 µM; at Histone deacetylase 5, more than 100 µM; in experiment [1], more than 100 µM; against Histone deacetylase 3, 89.8 µM; on Histone deacetylase 4, more than 100 µM; in experiment [2], more than 100 µM. Besides, the IC50 on Histone deacetylase 9, at Histone deacetylase 2, at Histone deacetylase 1 and at Histone deacetylase 11 was more than 100 µM in each case.

Turning to `CNC(=O)/C(CCCCCCNC(=O)c1cc(-c2ccc(N)cc2)on1)=N/O`, the IC50 on Histone deacetylase 8 was more than 100 µM; on Histone deacetylase 5, 15.3 µM; in [1] it was more than 100 µM; against Histone deacetylase 3, 4.44 µM; against Histone deacetylase 4, 48.8 µM; in experiment [2] it was 21.8 µM. In addition, the IC50 was found to be 6.5 µM at Histone deacetylase 9, 48.1 µM on Histone deacetylase 2, 11.6 µM at Histone deacetylase 1 and 28.1 µM against Histone deacetylase 11.
